In publication PMC12214830, “The human RIF1-Long isoform interacts with BRCA1 to promote recombinational fork repair under DNA replication stress” (Nature Communications, 2025):
Each block holds one molecule with its values, some of them ahead of it.

How the values were obtained:
[1] = tested on: RIF1-BRCA1 proximity in HeLa cells; assay: RIF1-BRCA1 proximity ligation assay, HeLa cells; format: cell-based, human; settings: HeLa +RIF1-L
Method: (§1) Proximity ligation assays were performed using the Duolink In Situ PLA Fluorescence Protocol (Sigma-Aldrich, DUO92101) following the manufacturer’s instruction. Cells were grown on glass coverslips and treated as indicated for specific experiments. Cells were then permeabilized with 0.5% TritonX-100 in PBS for 10 min on ice, and fixed with 3% formaldehyde, 2% sucrose in PBS for 10 min at room temperature (RT). After fixation, coverslips were blocked in 3% BSA in PBS for 1 h at RT and incubated with primary antibodies (anti-RIF1, Bethel laboratories A300-568A, 1:1000 dilution; anti-BRCA1, Santa Cruz Biotechnologies, sc-6954, 1:200 dilution), for 1 h at RT in a humidity chamber. Primary antibodies were then washed off with PLA washing buffer A supplied in the Duolink In Situ PLA kit. Coverslips were next incubated sequentially with PLA Probes (1 h at 37 °C), ligation solution (30 min at 37 °C) and amplification solution (100 min at 37 °C), with washes by washing buffer A in between each step. At the end of incubation, coverslips were washed with washing buffer B supplied in the Duolink In Situ PLA kit. Coverslips were then mounted on glass slides with PLA Mounting medium with DAPI. Images were captured by fluorescence microscopy (Zeiss Axio Imager). PLA foci number in each nucleus were analysed by CellProfiler Software[74] with a custom-made pipeline.
(§2) For proximity ligation assays and immunofluorescence signal intensity measurements, when comparing between two samples, statistical significance of differences was calculated by Mann-Whitney test for non-parametric distributions using GraphPad Prism software (v.9). When comparing among three or more samples, p values were calculated by Kruskal-Wallis test for non-parametric distributions with Dunn’s multiple comparisons using GraphPad Prism software (v.9). For RIF1 foci formation analysis (Fig. 6B), p values were calculated by two-tailed Student’s t test. For nuclear BRCA1 intensity fold change analyses (Fig. 6C, D), p values were calculated by two-tailed one-sample t test using GraphPad Prism software (v.9). For RAD51 foci formation analyses (Fig. 7B, E and Supplementary Fig. 7B), p values were calculated by chi-square test. For HR Reporter assay analysis (Fig. 7G and Supplementary Fig. 7L), p values were calculated by two-tailed paired Student’s t test. For micronuclei frequency analysis (Fig. 7H), p values were calculated by one-tailed paired Student’s t test. All Student’s t tests were performed with Excel T.TEST function. Chi-square tests were performed with the online Chi-square test calculator at https://www.socscistatistics.com/tests/chisquare2/default2.aspx. Sample number n for all box-and-whisker plots and dot plots are listed in Supplementary Data 1.

[2] = tested on: HCT116 cells; assay: colony formation (clonogenic survival) assay, HCT116 cells; format: cell-based, human; settings: for colony survival, RIF1-L cells: HCT116 expressing only RIF1-L, versus RIF1-WT; for colony survival, RIF1-S cells: HCT116 expressing only RIF1-S, versus RIF1-KO
Method: For HCT116-derived cells, cells were plated in 6-well plates at 250 cells/well, in triplicate for each drug concentration. Cells were incubated with drugs for 24 h, after which drug-containing medium was replaced with drug-free medium. Seven days later colony counting was performed using a Nikon Eclipse TS100 microscope. For the IR sensitivity test, cells were plated following the same procedure, then irradiated at desired doses and incubated for 7 days before colony counting. Clusters with more than 20 cells were counted as colonies. Mean and standard error of each triplicate was calculated.

[3] = tested on: RIF1-BRCA1 proximity in RPE-1 cells; assay: RIF1-BRCA1 proximity ligation assay, RPE-1 cells; format: cell-based, human
Method: as §1
For EdU labelling combined with proximity ligation assay, cells were labelled with 10 µM EdU for 15 min, washed free of EdU and next incubated with medium containing 4 mM HU medium for 4 h. Cells were then permeabilized, fixed and subjected to RIF1-BRCA1 PLA procedures. After all PLA steps, EdU detection was performed following manufacturer’s instructions in the Click-iT EdU Imaging Kit (Invitrogen, C10640).
as §2

[4] = tested on: RIF1-L-pS2265 antibody; assay: ELISA, RIF1-L pS2265 antibody binding to exon 31 peptides; parameters: key: absorbance at 450 nm, blank-subtracted
Method: Two biotinylated peptides corresponding to exon 31 of human RIF1-L without phosphorylation (Biotin-(long chain)-[…]) and with phosphorylation at S2265 (Biotin-(long chain)-[…]-pS-[…]) were synthesised by Eurogentec Ltd (Southampton, Hampshire, UK). Two peptides were mixed in a variable ratio of 0–1% phosphorylated peptide/total peptide. The concentration of total peptide was kept constant at 250 nM in the ELISA wash buffer (1x TBS with 0.1% BSA and 0.05% Tween-20). The peptides were incubated within streptavidin-coated 96-well plates (Pierce Streptavidin Coated High Capacity Plates, Thermo Scientific, 15500) for 2 h at room temperature. After washing with ELISA wash buffer, the RIF1-L pS2265 phospho-antibody (1:2500 dilution) was added and incubated for 2 h at room temperature, followed by washing and incubation with HRP-conjugated secondary antibody (anti-rabbit; Bio-Rad #1706515, 1/10,000 dilution) for 1 h at room temperature. After washing, TMB substrate solution (1-Step Slow TMB-Elisa Substrate Solution, ThermoFisher, 34024) was added to develop the blue colour. 1 N HCl was then added to stop the reaction. Absorbance at 450 nm was measured. The average readings of the blank wells were subtracted. Mean and standard deviations of technical triplicates are shown.

[5] = tested on: micronuclei; assay: micronuclei frequency, HeLa cells; format: cell-based, human; settings: Fig.7H
Method: as §2

[6] = Fig S4I, ATMi (KU-60019) 2µM + HU 4mM 24hr
[7] = Fig S4J, DNA-PKi (NU-7441) 1µM + HU 4mM 24hr
[8] = HeLa RIF1 KO + GFP-RIF1 derivative cells, HU, experiment 07Jun2024
[9] = HeLa RIF1 KO + GFP-RIF1 derivative cells, unt, experiment 07Jun2024

Molecule: C[C@@H]1CN(CC(=O)Nc2ccc3c(c2)Cc2cccc(-c4cc(=O)cc(N5CCOCC5)o4)c2S3)C[C@H](C)O1 [KU-60019]
RIF1-BRCA1 PLA foci per nucleus, mean [1, 6]: 18.33
RIF1-BRCA1 PLA foci per nucleus, median [1, 6]: 2, 17, 17
RIF1-BRCA1 PLA ([1]; ATMi (KU-60019) 2 µM 24 h + HU 4 mM 24 h): no apparent effect

Molecule: C[C@@]1(CO)[C@H](O)CC[C@@]2(C)[C@H]1CC[C@H]1C[C@@H]3C[C@@]12CC[C@]3(O)CO [APH, aphidicolin]
colony survival, RIF1-L cells [2]: RIF1-L conferred resistance comparable to RIF1-WT
colony survival, RIF1-S cells [2]: exhibited hypersensitivity to these drugs similar to RIF1-KO cells
RIF1-BRCA1 PLA foci ([3]; APH 4 µM 24 h): also induced PLA foci
RIF1-BRCA1 PLA foci per nucleus, mean ([3]; Fig 3C, APH 4 µM 24 h): 1.540
RIF1-BRCA1 PLA foci per nucleus, median ([3]; Fig 3C, APH 4 µM 24 h): 1

Molecule: O=c1cc(N2CCOCC2)oc2c(-c3cccc4c3sc3ccccc34)cccc12 [NU-7441]
RIF1-BRCA1 PLA ([3]; DNA-PKi (NU-7441) 1 µM 24 h + HU 4 mM 24 h): no apparent effect
RIF1-BRCA1 PLA foci per nucleus, mean [3, 7]: 7.597
RIF1-BRCA1 PLA foci per nucleus, median [3, 7]: 0, 5, 5

Molecule: Phleomycin
colony growth after treatment, RIF1-L and RIF1-S cells ([2]; HCT116 expressing only RIF1-L or only RIF1-S): able to support colony growth

A450, Average ([4]; 0.00% phosphorylated/total peptide (250 nM total), mean of technical triplicates): 0.009
A450 ([4]; 0.00% phosphorylated/total peptide (250 nM total), replicate 1): 0.01
A450 ([4]; 0.00% phosphorylated/total peptide (250 nM total), replicate 2): 0.008
A450 ([4]; 0.00% phosphorylated/total peptide (250 nM total), replicate 3): 0.01
A450, Average ([4]; 0.13% phosphorylated/total peptide (250 nM total), mean of technical triplicates): 0.104
A450 ([4]; 0.13% phosphorylated/total peptide (250 nM total), replicate 1): 0.106
A450 ([4]; 0.13% phosphorylated/total peptide (250 nM total), replicate 2): 0.104
A450 ([4]; 0.13% phosphorylated/total peptide (250 nM total), replicate 3): 0.103
A450, Average ([4]; 0.25% phosphorylated/total peptide (250 nM total), mean of technical triplicates): 0.166
A450 ([4]; 0.25% phosphorylated/total peptide (250 nM total), replicate 1): 0.16
A450 ([4]; 0.25% phosphorylated/total peptide (250 nM total), replicate 2): 0.169
A450 ([4]; 0.25% phosphorylated/total peptide (250 nM total), replicate 3): 0.169
A450, Average ([4]; 0.50% phosphorylated/total peptide (250 nM total), mean of technical triplicates): 0.239
A450 ([4]; 0.50% phosphorylated/total peptide (250 nM total), replicate 1): 0.247
A450 ([4]; 0.50% phosphorylated/total peptide (250 nM total), replicate 2): 0.216
A450 ([4]; 0.50% phosphorylated/total peptide (250 nM total), replicate 3): 0.255
A450, Average ([4]; 1.00% phosphorylated/total peptide (250 nM total), mean of technical triplicates): 0.346
A450 ([4]; 1.00% phosphorylated/total peptide (250 nM total), replicate 1): 0.348
A450 ([4]; 1.00% phosphorylated/total peptide (250 nM total), replicate 2): 0.343
A450 ([4]; 1.00% phosphorylated/total peptide (250 nM total), replicate 3): 0.347
A450, Average ([4]; Standard 0.13%, average of 3, right block): 0.104
A450 ([4]; Standard 0.13%, replicate 1, left block): 0.155
A450 ([4]; Standard 0.13%, replicate 1, right block (0.049 below left block)): 0.106
A450 ([4]; Standard 0.13%, replicate 2, left block): 0.153
A450 ([4]; Standard 0.13%, replicate 2, right block (0.049 below left block)): 0.104
A450 ([4]; Standard 0.13%, replicate 3, left block): 0.152
A450 ([4]; Standard 0.13%, replicate 3, right block (0.049 below left block)): 0.103
A450, Average ([4]; Standard 0.25%, average of 3, right block): 0.166
A450 ([4]; Standard 0.25%, replicate 1, left block): 0.209
A450 ([4]; Standard 0.25%, replicate 1, right block (0.049 below left block)): 0.16
A450 ([4]; Standard 0.25%, replicate 2, left block): 0.218
A450 ([4]; Standard 0.25%, replicate 2, right block (0.049 below left block)): 0.169
A450 ([4]; Standard 0.25%, replicate 3, left block): 0.218
A450 ([4]; Standard 0.25%, replicate 3, right block (0.049 below left block)): 0.169
A450, Average ([4]; Standard 0.50%, average of 3, right block): 0.239
A450 ([4]; Standard 0.50%, replicate 1, left block): 0.296
A450 ([4]; Standard 0.50%, replicate 1, right block (0.049 below left block)): 0.247
A450 ([4]; Standard 0.50%, replicate 2, left block): 0.265
A450 ([4]; Standard 0.50%, replicate 2, right block (0.049 below left block)): 0.216
A450 ([4]; Standard 0.50%, replicate 3, left block): 0.304
A450 ([4]; Standard 0.50%, replicate 3, right block (0.049 below left block)): 0.255
A450, Average ([4]; Standard 1.00%, average of 3, right block): 0.346
A450 ([4]; Standard 1.00%, replicate 1, left block): 0.397
A450 ([4]; Standard 1.00%, replicate 1, right block (0.049 below left block)): 0.348
A450 ([4]; Standard 1.00%, replicate 2, left block): 0.392
A450 ([4]; Standard 1.00%, replicate 2, right block (0.049 below left block)): 0.343
A450 ([4]; Standard 1.00%, replicate 3, left block): 0.396
A450 ([4]; Standard 1.00%, replicate 3, right block (0.049 below left block)): 0.347
Molecule: Biotin-(long chain)-HNTTSAKGFLSPGSR-pS-PKFKSSKKCL [RIF1-L-phosphoS2265 peptide, biotinylated exon 31 peptide of human RIF1-L phosphorylated at S2265]

Molecule: RIF1-L -APKF
Micronuclei per 100 ([5]; HU, experiment 14Apr2024): 14.2857
Micronuclei per 100 [5, 8]: 12.35
Micronuclei per 100 [5, 9]: 6.03
Micronuclei per 100 ([5]; unt, experiment 14Apr2024): 4.214

Molecule: CC[C@@]1(O)C(=O)OCc2c1cc1n(c2=O)Cc2cc3ccccc3nc2-1 [CPT, camptothecin]
colony survival, RIF1-L cells [2]: RIF1-L conferred resistance comparable to RIF1-WT
colony survival, RIF1-S cells [2]: exhibited hypersensitivity to these drugs similar to RIF1-KO cells
RIF1-BRCA1 PLA foci ([3]; CPT 100 nM 24 h): also induced PLA foci
RIF1-BRCA1 PLA foci per nucleus, mean ([3]; Fig 3C, CPT 100 nM 24 h): 4.982
RIF1-BRCA1 PLA foci per nucleus, median ([3]; Fig 3C, CPT 100 nM 24 h): 4

Molecule: RIF1-S
Micronuclei per 100 ([5]; HU, experiment 14Apr2024): 12.4358
Micronuclei per 100 [5, 8]: 12.93
Micronuclei per 100 [5, 9]: 6.41
Micronuclei per 100 ([5]; unt, experiment 14Apr2024): 6.217
